Reference: patent US7009045B2 (priority 2000, dated 2006)

Legend:
Type in all cases: cell-based
[1] = test system: Candida famata regulatory mutants able to overproduce riboflavin; assay: Sensitivity to Co^+2 ions, solid Burkholder medium (Table 16); design: key: +++: strong growth; ++: weak growth; +: very weak growth; —: absence of growth
Procedure: The sensitivity of the regulatory mutants of the yeast C. famata which overproduce riboflavin in iron rich medium probably due to defects in genes regulating repression (repression mutants), to different ions of heavy metals was studied. For this, the analyzed strains were streaked on the YPD plates and then were replica-plated on Burkholder synthetic medium containing leucine (40 μg/ml). The C.famata mutants L20105-40-1-11, L20105-40-1-17, L20105-3-2-1, L20105-3-2-8 and L20105-3-2-12 (all contained leu2 marker) accumulated 80–100 μg riboflavin/ml. The mutants #75, 4-48, 2-5 produced much higher amounts of riboflavin (200–250 μg/ml) but were prototrophs for leucine synthesis. Strain #75 was characterized by retarded growth comparing with other mutants. The strains VKM Y-9 (wild type) and L20105 (leu2) were used as the control strains.

[2] = test system: Candida famata regulatory mutants able to overproduce riboflavin; assay: Sensitivity to copper ions, solid Burkholder medium (Table 12); design: key: +++: strong growth; ++: weak growth; —: absence of growth; details: L20105-3-2-4
[3] = test system: Candida famata wild type and regulatory mutants able to overproduce riboflavin on iron-rich medium; assay: Sensitivity after electroporation to K2Cr2O7, Burkholder medium with 1% ethanol (Table 17); details: K2Cr2O7 15–50 μM
Excerpt: The strategy for the cloning of the genes regulating derepression of riboflavin in C. famata was developed using regulatory mutants 2-5 and 4-48 which accumulate elevated amounts of riboflavin in the medium with high iron content. The method for positive selection of the transformants which, after transformation with C. famata gene library, would lose the ability to overproduce riboflavin in iron rich medium, was developed. For this, the difference in sensitivity to Cr^+6 ions (as K2Cr2O7) between C. famata wild strain VKM Y-9 and overproducers of riboflavin 2-5 and 4-48 after their electroporation with the C. famata gene library constructed on pCfARS1614, was studied.
Toxicity of Cr^+6 was studied on agar plates containing different carbon sources (sucrose, glycerol, ethanol). Before the electroporated cells were plated on ethanol and glycerol medium, the cells were washed 3 times with 10 fold volumes of 0.6 M KCl and the suspension volumes were adjusted with 0.6 M KCl to 100 μl. On each plate containing glycerol (0.5%) or ethanol (1%), 0.6 M KCl and different concentrations (10–200 uM) of K2Cr2O7, in a 30–60 μl suspension were spread. Where sucrose was used as a carbon source, this sugar was used at a 0.3M concentration, using it as both as a carbon source and osmotic stabilizer.

SMILES: [Cl-].[Cl-].[Co+2] [CoCl2]
- growth ([1]; #2-5, Co^+2 3.75 μg/ml): +
- growth ([1]; #75, Co^+2 2.5 μg/ml): +
- growth ([1]; L20105-3-2-1, Co^+2 3.75 μg/ml): +
- growth ([1]; L20105-3-2-8, Co^+2 3.75 μg/ml): +
- growth ([1]; L20105-3-2-8, Co^+2 5.0 μg/ml): +
- growth ([1]; L20105-3-2-9, Co^+2 3.75 μg/ml): +
- growth ([1]; L20105-3-2-12, Co^+2 3.75 μg/ml): +
- growth ([1]; L20105-3-2-12, Co^+2 5.0 μg/ml): +
- growth ([1]; L20105-40-1-11, Co^+2 3.75 μg/ml): +

SMILES: O=S(=O)([O-])[O-].[Cu+2] [CuSO4]
- growth ([2]; Cu^+2 0.3 mM): —
- growth ([2]; Cu^+2 8 mM): —

SMILES: [K+].[K+].[O]=[Cr](=[O])([O-])[O][Cr](=[O])(=[O])[O-] [K2Cr2O7]
- growth of the wild-type strain [3]: almost uninhibited
